Measurements from patent publication US20170029823A1, “TRUNCATED TRK B AND TRK C ANTAGONISTS AND USES THEREOF” (priority 2015, published 2017).
Entries after “also recorded” stand apart in the source; their conditions may differ. One block for each molecule: values may come before it.

How the values were obtained:
[1] = test system: RHOP347S (RHOP) transgenic mouse model of retinitis pigmentosa; assay: ONL thickness by FD-OCT after intravitreal injection; format: in vivo; settings: PD98059 intravitreal at post-natal day 17
Experimental: (§1) Intravitreal injections were performed as follows. Briefly, mice were anesthetized with isoflurane, delivered through a gas anesthetic mask. The drugs were delivered using a Hamilton syringe. Injections were done using a surgical microscope to visualize the Hamilton entry into the vitreous chamber and confirm delivery of the injected solution. After the injection, the syringe was left in place for 30 sec and slowly withdrawn from the eye to prevent reflux. Experimental right eyes were injected with the test agents and control left eyes serve as internal control.
(§2) All intravitreal injections delivered 2 μl of the MAPK/ERK inhibitor PD98059 (10 mM stock) or the selective-TrkC antagonist 3F (1 mM stock). Control eyes were injected with 50% DMSO for PD98059 assays or 5% DMSO for the compound 3F assays. Intravitreal injections in wild-type or RHOP-mice were made at post-natal day 17. Experimental time points to measure ONL thinning were set at post-natal days 18, 22, 24 and 28. The end point for analyzing the effect of the compounds on the expression of p-Erk and p-Akt was at post-natal day 18 (24 hours after intravitreal injection).
A noninvasive prototype spectrometer-based FD-OCT system was used to acquire the retinal images. FD-OCT is a noninvasive method that allows time-kinetic studies in the same animal, with axial resolution in tissue nominally better than 4 μm and repeatability of the measurements from B-scans better than 1 μm. Data acquisition was performed using custom software written in C++ for rapid frame grabbing, processing, and display of two-dimensional images. Manual segmentations were used to measure the thicknesses of the mice retinas. Mice were anesthetized using isoflurane/O2 and placed on a platform, and the head was oriented to an angle at which the eye was properly aligned to the optical beam. The pupils were dilated with a topical solution (atropine sulfate 1%; Alcon, Fort Worth, Tex.). Refraction of light at the cornea was cancelled by placing over the eye a generic artificial tear gel. Alignment of the optical system to the […] retina required a few minutes and was followed by rapid acquisition of data (about 5 s/vol). During retinal scanning, three volumes were acquired in different sectors of the retina containing the ON head as landmark.
After processing, three B-scans were randomly selected from each volume. The retinal thickness measurements were performed with Matlab software using the saved data. In each B-scan, the thickness of the nerve fiber layer (NFL)—ganglion cell layer (GCL)—inner plexiform layer (IPL), hereafter referred to as NGI and outer nuclear layer (ONL) was measured at three adjacent points. […]

p-Erk and p-Akt = p-Erk and p-Akt immunohistochemistry in RHOP retinas after intravitreal injection; format: in vivo, mouse; settings: post-natal day 18, 24 h after intravitreal PD98059, vs vehicle-injected eye
Experimental: as §1
as §2, with “injection). […]” for “injection).”
For each experimental condition, a minimum of 6 images were acquired from 3 sections cut from different areas of the retina (n=3-4 retinas per group). The area of the profiles of the cells expressing p-Akt and p-Erk was measured using ImageJ software. […]

TNF-α = TNF-α mRNA (PCR) and protein (ELISA) in rMC-1 cells; format: cell-based; settings: NT-3 (10 nM) or LPS (1 μg/ml) for 6 hrs
Description: FIG. 7A-FIG. 7D illustrates development and validation of a TrkC.T1 inhibitor that prevents TrkC.T1-mediated induction of TNF-α FIG. 7A The mRNA levels of TrkC-FL and TrkC.T1 were quantified by PCR, after infection with lentivirus pLKO.Scr (scrambled control) or with pLKO.1 (expressing a unique shRNA (SEQ ID NO: 1) targeting TrkC.T1 mRNA specifically). Results are normalized to reference GAPDH mRNA. Data are expressed as the mean+SEM; n=3 independent experiments each in triplicate. […] FIG. 7B and FIG. 7C In rMC-1 cells the levels of TNF-α mRNA and protein were quantified by PCR or by ELISA after infection with pLKO.1TrkC.T1 or pLKOScr control. NT-3 and LPS treatment induce TNF-α and pLKO.1 prevents it. Data are standardized to untreated control. Average±sem, n=3 independent experiments each in triplicate. FIG. 7D In spinal cord of ALS G93A versus wild type mice the levels of TNF-α mRNA were assessed by quantitative PCR. Results were normalized to GAPDH. Data are expressed as the mean±SEM n=8 independent spinal cords per group. A-F t-test was applied for statistical analysis. * p<0.05, ** p<0.01 versus control. Stars with brackets indicate differences between the indicated groups.
In rMC-1 cells treatment with NT-3 (10 nM) or LPS (1 μg/ml) for 6 hrs increases TNF-α mRNA (FIG. 7B) and protein (FIG. 7C).

TrkC.T1 = target: T1, TrkC.T1 (Rattus norvegicus, UniProt Q03351); assay: p-Erk and p-Akt western blot after NT-3 stimulation in 293-TrkC.T1 cells; format: cell-based; settings: non-infected 293-TrkC.T1 cells, NT-3 4 nM for 10 min
T1 construct: expressed in transfected cells; host or cells: HEK293 (stably transfected subclone 293-TrkC.T1)
T1 sequence (Q03351 32-612 isoform Q03351-5 limits assumed): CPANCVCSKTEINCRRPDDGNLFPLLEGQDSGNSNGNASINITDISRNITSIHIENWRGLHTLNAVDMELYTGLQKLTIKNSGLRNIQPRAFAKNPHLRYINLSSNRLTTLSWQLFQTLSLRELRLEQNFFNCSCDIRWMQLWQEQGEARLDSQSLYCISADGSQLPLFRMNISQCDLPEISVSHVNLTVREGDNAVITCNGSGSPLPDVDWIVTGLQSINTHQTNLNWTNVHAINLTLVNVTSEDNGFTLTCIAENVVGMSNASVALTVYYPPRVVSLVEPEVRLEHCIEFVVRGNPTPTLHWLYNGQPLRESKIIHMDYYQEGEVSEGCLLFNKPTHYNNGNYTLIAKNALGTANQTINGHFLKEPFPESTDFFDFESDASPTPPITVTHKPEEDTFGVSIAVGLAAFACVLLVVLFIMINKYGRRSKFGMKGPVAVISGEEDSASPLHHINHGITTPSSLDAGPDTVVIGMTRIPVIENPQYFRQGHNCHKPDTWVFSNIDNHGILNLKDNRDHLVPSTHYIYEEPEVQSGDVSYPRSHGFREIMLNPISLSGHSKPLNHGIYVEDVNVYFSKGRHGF
Experimental: (§3) FIG. 15A-FIG. 15D illustrates TrkC.T1 directly activates MAPK/Erk in Müller cells. Representative western blots showing the levels of TrkC-FL (140 KDa), TrkC.T1 (110 kDa), p-Erk 1/2 (44 and 42 KDa) and p-Akt (60 KDa) in HEK293 cell expression system and rMC-1 cells, with or without stimulation of 4 nM NT-3 for 10 min. […] FIG. 15B, FIG. 15D Densitometric quantification of p-Erk and p-Akt signal standardized to untreated controls (arbitrary value of 1). The data represent relative protein levels±SEM. n=3 independent experiments. * p<0.05, ** p<0.01 and ***p<0.001.
(§4) HEK293 cells were transfected with human full-length TrkC cDNA (293-TrkC-FL) or with rat TrkC.T1 cDNA (293-TrkC.T1). The cells are stably transfected subclones that express high levels of TrkC-FL or TrkC.T1 receptors and are respectively grown under drug selection (0.5 mg/ml G418 or 1 mg/ml Puromycin).
(§5) All cells types were serum-starved for 1 hour. […]
(§6) Whole retinas either from culture or freshly dissected were collected and added to 200 μL lysis buffer (20 mM Tris-HCl pH 7.5, 137 mM NaCl, 2 mM EDTA, 1% Nonidet P-40) containing a protease inhibitor cocktail (Roche). […] Protein quantities were assessed using the Bradford assay (BioRad), and 40 μg of total protein was mixed with Laemmli buffer, boiled for 5 minutes and loaded onto 10% gels. […] Blots were scanned and quantified using ImageJ software. […]

TrkC-FL = target: T2, TrkC-FL (Homo sapiens, UniProt Q16288); assay: p-Erk and p-Akt western blot after NT-3 stimulation in 293-TrkC-FL cells; format: cell-based; settings: NT-3 4 nM for 10 min
T2 construct: transfected with human full-length TrkC cDNA (293-TrkC-FL); expressed in transfected cells; host or cells: HEK293 (stably transfected subclone 293-TrkC-FL)
T2 sequence (Q16288 32-839): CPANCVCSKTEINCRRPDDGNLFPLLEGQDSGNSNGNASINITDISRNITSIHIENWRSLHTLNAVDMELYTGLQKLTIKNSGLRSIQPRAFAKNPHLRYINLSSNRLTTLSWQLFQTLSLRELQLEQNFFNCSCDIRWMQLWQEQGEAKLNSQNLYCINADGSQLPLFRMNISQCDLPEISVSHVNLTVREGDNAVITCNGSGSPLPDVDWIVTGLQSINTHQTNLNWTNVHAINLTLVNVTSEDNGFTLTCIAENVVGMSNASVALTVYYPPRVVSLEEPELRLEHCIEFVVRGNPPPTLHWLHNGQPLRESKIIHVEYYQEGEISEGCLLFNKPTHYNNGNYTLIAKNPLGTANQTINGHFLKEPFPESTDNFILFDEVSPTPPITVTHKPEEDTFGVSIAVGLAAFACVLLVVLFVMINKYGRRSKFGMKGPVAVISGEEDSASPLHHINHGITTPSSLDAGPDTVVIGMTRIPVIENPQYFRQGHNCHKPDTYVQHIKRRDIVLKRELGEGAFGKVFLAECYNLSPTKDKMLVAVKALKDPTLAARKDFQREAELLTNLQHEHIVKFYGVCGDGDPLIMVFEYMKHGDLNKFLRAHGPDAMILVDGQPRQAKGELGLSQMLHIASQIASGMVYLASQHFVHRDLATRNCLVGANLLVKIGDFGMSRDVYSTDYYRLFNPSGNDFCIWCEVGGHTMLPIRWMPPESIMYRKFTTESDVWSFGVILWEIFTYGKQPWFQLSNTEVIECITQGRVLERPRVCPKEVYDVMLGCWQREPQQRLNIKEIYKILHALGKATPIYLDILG
Experimental: as §3, §4, §5, §6

[2] = target: T3, endogenous TrkC.T1 in rMC-1 cells (Rattus norvegicus, UniProt Q03351); assay: p-Erk and p-Akt western blot after NT-3 stimulation in rMC-1 cells; format: cell-based; settings: rMC-1 infected and rMC-1 wild-type cells, 4 nM NT-3 for 10 min
T3 construct: endogenous TrkC.T1 mRNA in r-MC-1 cells was silenced; endogenous in cells; host or cells: rMC-1 (Müller glial cell line)
T3 sequence (Q03351 32-612 isoform Q03351-5 limits assumed): as the sequence (Q03351 32-612 isoform Q03351-5 limits assumed) above
Experimental: as §3
A short hairpin RNA (shRNA) specifically targeting a unique 3′ sequence of the TrkC.T1 mRNA was designed using the DSIR algorithm. The TrkC.T1-targeting shRNA sequence […] (SEQ ID NO: 1), or a scrambled control sequence […] […] TrkC.T1-specific depletion was determined by real-time quantitative PCR and by Western blotting.
as §5, §6

[3] = target: human full-length TrkC expressed on HEK293 cells (293-TrkC-FL) (human) (UniProt Q16288); assay: cell-based or functional assay
Sequence of human full-length TrkC expressed on HEK293 cells (293-TrkC-FL) (human) (Q16288 32-839): as the sequence (Q16288 32-839) above

[4] = target: rat TrkC.T1 expressed on HEK293 cells (293-TrkC.T1) (rat) (UniProt Q03351); assay: cell-based or functional assay
Sequence of rat TrkC.T1 expressed on HEK293 cells (293-TrkC.T1) (rat) (Q03351 32-864): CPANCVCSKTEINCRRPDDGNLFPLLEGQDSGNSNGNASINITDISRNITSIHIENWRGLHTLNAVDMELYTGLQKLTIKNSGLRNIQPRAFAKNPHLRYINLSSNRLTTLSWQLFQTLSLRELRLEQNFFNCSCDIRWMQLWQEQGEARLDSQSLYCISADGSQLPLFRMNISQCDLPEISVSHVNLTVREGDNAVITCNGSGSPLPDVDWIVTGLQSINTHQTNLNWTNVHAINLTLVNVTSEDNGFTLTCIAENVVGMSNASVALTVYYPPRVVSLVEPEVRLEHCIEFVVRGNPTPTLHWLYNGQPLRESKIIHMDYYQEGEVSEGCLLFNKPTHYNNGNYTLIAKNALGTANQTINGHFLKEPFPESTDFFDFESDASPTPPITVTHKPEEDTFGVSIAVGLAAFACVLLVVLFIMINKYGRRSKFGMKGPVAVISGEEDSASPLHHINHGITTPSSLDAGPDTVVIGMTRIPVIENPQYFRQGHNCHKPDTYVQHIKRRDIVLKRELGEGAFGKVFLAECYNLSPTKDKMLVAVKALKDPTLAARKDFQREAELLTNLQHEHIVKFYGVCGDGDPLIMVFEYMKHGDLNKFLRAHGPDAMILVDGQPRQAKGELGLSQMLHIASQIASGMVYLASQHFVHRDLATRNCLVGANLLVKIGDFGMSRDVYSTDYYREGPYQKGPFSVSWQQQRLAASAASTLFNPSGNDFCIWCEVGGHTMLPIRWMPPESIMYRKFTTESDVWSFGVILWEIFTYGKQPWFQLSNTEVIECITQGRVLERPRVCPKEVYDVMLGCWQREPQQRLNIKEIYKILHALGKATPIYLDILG

Molecule: COc1cccc(-c2cc(=O)c3ccccc3o2)c1N [PD98059]
ONL thickness vs vehicle-injected eye ([1]; RHOP mice, post-natal day 22 (did not reach significant values)): slightly bigger | ONL thickness vs vehicle-injected eye ([1]; RHOP mice, post-natal day 24): clear protective effect; also recorded: bigger | ONL thickness vs vehicle-injected eye ([1]; RHOP mice, post-natal day 28): still larger; also recorded: bigger | ONL thickness vs vehicle-injected eye ([1]; WT mice): No changes | block of p-Erk in Müller cells (p-Erk and p-Akt): 030% | p-Erk signal (immunoreactivity) in Müller cells (p-Erk and p-Akt): abolished; also recorded: reduced

increase in p-Erk levels (TrkC.T1): ~2 fold | increase in p-Akt levels (TrkC-FL): ~1.5 | increase in p-Erk (TrkC-FL): ~2.5 fold | levels of p-Akt [2]: did not change
Molecule: neurotrophin-3 [NT-3]
TNF-α mRNA and protein (TNF-α): increases; also recorded: induce

p-Akt level (Western blot densitometry) after 4 nM NT-3 for 10 min [3]: 1.5 fold | p-Erk level (Western blot densitometry) after 4 nM NT-3 for 10 min [3]: 2.5 fold | p-Erk level (Western blot densitometry) after 4 nM NT-3 for 10 min, non-infected 293-TrkC.T1 cells [4]: 2 fold
B1: neurotrophin-3 (NT-3) (ligand, UniProt P20783 139-257, looked up)
chain: YAEHKSHRGEYSVCDSESLWVTDKSSAIDIRGHQVTVLGEIKTGNSPVKQYFYETRCKEARPVKNGCRGIDDKHWNSQCKTSQTYVRALTSENNKLVGWRWIRIDTSCVCALSRKIGRT
